Where “and” joins values, the source holds several entries; their conditions need not be identical. Equal entries are not always repeated. Inconclusive results and toxic doses are left out. Square brackets hold non-standard residues; d marks the D form. Peptide text beside a SMILES is read from it. ξ: configuration not given here. ξY = NC(Cc1ccc(O)cc1)C(=O)O
Tested on: P388 leukemia ip, CD2F1 mice, survival T/C
Experiment: NCI In Vivo Anticancer Drug Screen. Data for tumor model P388 Leukemia (intraperitoneal) in CD2F1 (CDF1) mice
Settings: endpoint: median survival time, higher = longer survival
Method in brief: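 Mice carrying the transplanted tumor received test compound or vehicle. Survival was recorded in each group, and the value is the treated-group measurement divided by that of the vehicle-treated control group.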

[1] = dose: 50.0 mg/kg/injection, schedule: Q01DX005 (ip), vehicle: saline with Tween-80
[2] = dose: 100.0 mg/kg/injection, schedule: Q01DX005 (ip), vehicle: saline with Tween-80
[3] = dose: 50.0 mg/kg/injection, schedule: Q01DX009 (ip), vehicle: saline
[4] = dose: 100.0 mg/kg/injection, schedule: Q01DX009 (ip), vehicle: saline with Tween-80
[5] = dose: 50.0 mg/kg/injection, schedule: Q01DX009 (ip), vehicle: saline with Tween-80
[6] = dose: 60.0 mg/kg/injection, schedule: Q01DX005 (ip), vehicle: saline with Tween-80
[7] = dose: 120.0 mg/kg/injection, schedule: Q01DX005 (ip), vehicle: saline with Tween-80
[8] = dose: 240.0 mg/kg/injection, schedule: Q01DX005 (ip), vehicle: saline with Tween-80
[9] = dose: 60.0 mg/kg/injection, schedule: Q01DX005 (ip), vehicle: saline
[10] = dose: 120.0 mg/kg/injection, schedule: Q01DX005 (ip), vehicle: saline
[11] = dose: 240.0 mg/kg/injection, schedule: Q01DX005 (ip), vehicle: saline

In the case of `OCC1OC(n2ncc3c(Cl)ccnc32)C(O)C1O` (stereo not drawn), the T/C (dose: 4.0 mg/kg/injection, schedule: Q01DX005 (ip), vehicle: saline with Tween-80) is reported as 100 % of control, the T/C (dose: 8.0 mg/kg/injection, schedule: Q01DX005 (ip), vehicle: saline with Tween-80) is reported as 103 % of control and the T/C (dose: 16.0 mg/kg/injection, schedule: Q01DX005 (ip), vehicle: saline with Tween-80) is reported as 97 % of control. For the same compound, the T/C (dose: 32.0 mg/kg/injection, schedule: Q01DX005 (ip), vehicle: saline with Tween-80) was 109 % of control and the T/C (dose: 64.0 mg/kg/injection, schedule: Q01DX005 (ip), vehicle: saline with Tween-80) was 100 % of control.

For `CCOC(=O)C(Cc1ccc(N(CCCl)CCCl)cc1)NC(=O)C(Cc1ccc([N+](=O)[O-])cc1)NC(C)=O` (stereo not drawn), the T/C (dose: 5.0 mg/kg/injection, schedule: Q04DX003 (ip), vehicle: water) was 91 % of control, the T/C (dose: 10.0 mg/kg/injection, schedule: Q04DX003 (ip), vehicle: water) was 91 % of control and the T/C (dose: 20.0 mg/kg/injection, schedule: Q04DX003 (ip), vehicle: water) was 90 % of control. For the same compound, the T/C (dose: 40.0 mg/kg/injection, schedule: Q04DX003 (ip), vehicle: other) was 88 % of control, the T/C (dose: 40.0 mg/kg/injection, schedule: Q04DX003 (ip), vehicle: water) was 98 % of control and the T/C (dose: 80.0 mg/kg/injection, schedule: Q04DX003 (ip), vehicle: other) was 91 % of control. The T/C (dose: 100.0 mg/kg/injection, schedule: Q04DX003 (ip), vehicle: other) was 90 % of control, the T/C (dose: 160.0 mg/kg/injection, schedule: Q04DX003 (ip), vehicle: other) was 94 % of control and the T/C (dose: 200.0 mg/kg/injection, schedule: Q04DX003 (ip), vehicle: other) was 102 % of control. For the same compound, the T/C (dose: 400.0 mg/kg/injection, schedule: Q04DX003 (ip), vehicle: other) was 112 % of control.

In the case of `CCOC(=O)COc1cc2c(cc1Cc1ccc(OC)cc1)OCO2`, the T/C [1] is reported as 97 % of control and the T/C [2] is reported as 92 % of control.

In the case of `NC(N)=NC(N)=Nc1ccc([As](=O)(O)O)c(O)c1`, the T/C (dose: 22.5 mg/kg/injection, schedule: Q01DX009 (ip), vehicle: saline) is reported as 105 % of control, the T/C (dose: 25.0 mg/kg/injection, schedule: Q01DX009 (ip), vehicle: saline sonified) is reported as 118 % of control and the T/C (dose: 33.0 mg/kg/injection, schedule: Q01DX009 (ip), vehicle: saline) is reported as 104 % of control. The T/C (dose: 45.0 mg/kg/injection, schedule: Q01DX009 (ip), vehicle: saline) was 104 % of control, the T/C (dose: 50.0 mg/kg/injection, schedule: Q01DX009 (ip), vehicle: saline sonified) was 118 % of control and the T/C [3] was 109 % of control. The T/C (dose: 75.0 mg/kg/injection, schedule: Q01DX009 (ip), vehicle: saline) was 122 % of control, the T/C (dose: 90.0 mg/kg/injection, schedule: Q01DX009 (ip), vehicle: saline) was 115 % of control and the T/C (dose: 180.0 mg/kg/injection, schedule: Q01DX009 (ip), vehicle: saline) was 117 % of control. For the same compound, the T/C (dose: 360.0 mg/kg/injection, schedule: Q01DX009 (ip), vehicle: saline) was 103 % of control.

With `[O-][N+](CCO)(CCO)c1ncnc2nc[nH]c12` the T/C (dose: 50.0 mg/kg/injection, schedule: Q01DX005 (ip), vehicle: suspension in saline) was 102 % of control, the T/C (dose: 100.0 mg/kg/injection, schedule: Q01DX005 (ip), vehicle: suspension in saline) was 106 % of control and the T/C (dose: 200.0 mg/kg/injection, schedule: Q01DX005 (ip), vehicle: suspension in saline) was 102 % of control.

With `CCCCOC(=O)c1[nH]cnc1/N=N\N(C)C` the T/C (dose: 25.0 mg/kg/injection, schedule: Q01DX009 (ip), vehicle: saline with Tween-80) was 120 % of control, the T/C [4] was 105 % of control and the T/C (dose: 100.0 mg/kg/injection, schedule: Q04DX003 (ip), vehicle: saline with Tween-80) was 108 % of control. The T/C (dose: 132.0 mg/kg/injection, schedule: Q04DX003 (ip), vehicle: saline with Tween-80) was 100 % of control, the T/C (dose: 300.0 mg/kg/injection, schedule: Q04DX003 (ip), vehicle: saline with Tween-80) was 90 % of control and the T/C (dose: 400.0 mg/kg/injection, schedule: Q04DX003 (ip), vehicle: saline with Tween-80) was 100 % of control.

In the case of `CCCCCCCCOP(=O)(N1CC1C)N1CC1C` (stereo not drawn), the T/C (dose: 12.5 mg/kg/injection, schedule: Q01DX009 (ip), vehicle: saline with Tween-80) is reported as 113 % of control, the T/C (dose: 25.0 mg/kg/injection, schedule: Q04DX003 (ip), vehicle: saline) is reported as 109 % of control and the T/C [5] is reported as 158 % of control and 168 % of control. The T/C (dose: 50.0 mg/kg/injection, schedule: Q04DX003 (ip), vehicle: saline) was 113 % of control.

In the case of `Cc1cc(C)c(OP(=S)(Oc2c(C)cc(C)cc2C)Oc2c(C)cc(C)cc2C)c(C)c1`, the T/C (dose: 100.0 mg/kg/injection, schedule: Q04DX002 (ip), vehicle: Klucel (hydroxypropylcellulose) (HPC)) is reported as 87 % of control and the T/C (dose: 200.0 mg/kg/injection, schedule: Q04DX002 (ip), vehicle: Klucel (hydroxypropylcellulose) (HPC)) is reported as 86 % of control.

For `Clc1ccc([C@H]2N[C@@H]2c2ccccn2)cc1`, the T/C [6] was 94 % of control, the T/C [7] was 103 % of control and the T/C [8] was 94 % of control.

`CNc1cc[nH]c(=O)c1NC(C)=O` was tested, and the T/C [9] was 100 % of control, the T/C [10] was 101 % of control and the T/C [11] was 106 % of control.

`O=C1c2ccccc2C(=O)c2c1cc1c(c2O)OCO1` was tested, and the T/C [6] was 86 % of control, the T/C [7] was 89 % of control and the T/C [8] was 91 % of control.

For `CN(C)C1(c2ccccc2)CS(=O)(=O)C1`, the T/C [5] was 96 % of control, the T/C [4] was 96 % of control and the T/C (dose: 200.0 mg/kg/injection, schedule: Q01DX009 (ip), vehicle: saline with Tween-80) was 94 % of control.

For `O=C1NN2CCCN=C2c2ccncc21`, the T/C [9] was 98 % of control, the T/C [10] was 97 % of control and the T/C [11] was 93 % of control.

`N#CCCSC(=S)N1CCCC1=O` was tested, and the T/C [1] was 103 % of control, the T/C [2] was 104 % of control and the T/C (dose: 200.0 mg/kg/injection, schedule: Q01DX005 (ip), vehicle: saline with Tween-80) was 114 % of control.

With `CC(=O)[C-](Cl)C(C)=O.CC(=O)[C-](Cl)C(C)=O.CC(=O)[C-](Cl)C(C)=O.[Ru+3]` the T/C [6] was 111 % of control, the T/C [7] was 109 % of control and the T/C [8] was 98 % of control.

`Oc1ccccc1C=Nc1ccc(Cl)cn1` was tested, and the T/C [3] was 99 % of control, the T/C (dose: 100.0 mg/kg/injection, schedule: Q01DX009 (ip), vehicle: saline) was 100 % of control and the T/C (dose: 200.0 mg/kg/injection, schedule: Q01DX009 (ip), vehicle: saline) was 107 % of control.

For `CCOC(=O)Cc1ccc2c(c1)sc1nc(-c3ccc(OC)cc3)cn12`, the T/C (dose: 50.0 mg/kg/injection, schedule: Q01DX009 (ip), vehicle: DMSO) was 104 % of control, the T/C (dose: 100.0 mg/kg/injection, schedule: Q01DX009 (ip), vehicle: DMSO) was 103 % of control and the T/C (dose: 200.0 mg/kg/injection, schedule: Q01DX009 (ip), vehicle: DMSO) was 94 % of control.

`CCOC(C)(OCC)N(C)C` (tested in a mixture with another compound) was tested, and the T/C (dose: 35.5 mg/kg/injection, schedule: Q01DX005 (ip), vehicle: saline with Tween-80) was 101 % of control, the T/C (dose: 71.0 mg/kg/injection, schedule: Q01DX005 (ip), vehicle: saline with Tween-80) was 102 % of control and the T/C (dose: 142.0 mg/kg/injection, schedule: Q01DX005 (ip), vehicle: saline with Tween-80) was 118 % of control.

`O=C(O)c1ccccc1.[Eu]` was tested, and the T/C (dose: 12.5 mg/kg/injection, schedule: Q01DX009 (ip), vehicle: Klucel (hydroxypropylcellulose) (HPC)) was 88 % of control, the T/C (dose: 25.0 mg/kg/injection, schedule: Q01DX009 (ip), vehicle: Klucel (hydroxypropylcellulose) (HPC)) was 87 % of control and the T/C (dose: 50.0 mg/kg/injection, schedule: Q01DX009 (ip), vehicle: Klucel (hydroxypropylcellulose) (HPC)) was 89 % of control and 92 % of control. For the same compound, the T/C (dose: 100.0 mg/kg/injection, schedule: Q01DX009 (ip), vehicle: Klucel (hydroxypropylcellulose) (HPC)) was 90 % of control and the T/C (dose: 200.0 mg/kg/injection, schedule: Q01DX009 (ip), vehicle: Klucel (hydroxypropylcellulose) (HPC)) was 89 % of control.

For `CC(=O)OC1CCC2CC3(CCC1(C)C2=O)OCCO3` (stereo not drawn), the T/C (dose: 100.0 mg/kg/injection, schedule: Q04DX003 (ip), vehicle: saline + Tween-80 + alcohol) was 100 % of control, the T/C (dose: 200.0 mg/kg/injection, schedule: Q04DX003 (ip), vehicle: saline + Tween-80 + alcohol) was 99 % of control and the T/C (dose: 400.0 mg/kg/injection, schedule: Q04DX003 (ip), vehicle: saline + Tween-80 + alcohol) was 103 % of control.

In the case of `NCC(=O)NC(Cc1ccc(O)cc1)C(=O)NCC(=O)O` (stereo not drawn) (H-Gly-[ξY]-Gly-OH), the T/C (dose: 50.0 mg/kg/injection, schedule: Q01DX005 (ip), vehicle: Klucel (hydroxypropylcellulose) (HPC)) is reported as 99 % of control, the T/C (dose: 100.0 mg/kg/injection, schedule: Q01DX005 (ip), vehicle: Klucel (hydroxypropylcellulose) (HPC)) is reported as 98 % of control and the T/C (dose: 200.0 mg/kg/injection, schedule: Q01DX005 (ip), vehicle: Klucel (hydroxypropylcellulose) (HPC)) is reported as 98 % of control.

— PubChem BioAssay AID330 (DTP/NCI, 2004)
